Each compound was assayed on COLO320DM cells (assay: COLO320DM proliferation assay (CellTiter-Glo)). Conditions: absolute IC50, read-out: COLO320DM Proliferation Abs IC50.
Type: cell-based, human
Experimental: COLO320DM proliferation assay IC50: In some embodiments, inhibition of cell proliferation by provided technologies were assessed using cell lines related to or from certain conditions, disorders or diseases. In some embodiments, cell proliferation was assessed in COLO320DM cells. In some embodiments, assessment was performed using the following procedure: On Day 1, cultured COLO320DM cells in a T75 flask were trypsinized in 3 mL of 0.250% trypsin/EDTA for 5 min and quenched with 10 mL RPMI-1640+4% HI FBS assay media. The cells were spun down at 1200 rpm for 5 min, the cell pellet collected and re-suspended at 5000 cells/mL in assay media. Using a Combi liquid handler, cells were dispensed (50 uL, 250 cells/well) into three 384 well plates. Plates were incubated at 37° C., 5% CO2 for 18-22 h. On day 2, compounds were added. A liquid handling system was used to prepare the compound dilution and dispense compound into assay plates. The compounds were serially diluted 1/2 in 90% DMSO to create a 7 point dose curve. From compound plate, 100 nL of compound were dispensed directly into wells of the assay plates to create a dose curve starting at 20 uM and ending at 313 nM. Assay plates were incubated at 37° C., 5% CO2 for 96 h. On day 6, assay plates were removed from the incubator and allowed to sit at room temperature for 30 min. Using a liquid handler, 20 uL of CellTiter Glo reagent was added to each well. The assay plates were shaken for 2 min and allowed to sit on the bench for 10-15 minutes. The assay plates were read using the CellTiter Glo protocol on a GloMax microplate reader, and the data analyzed using GraphPad Prism. Activities of various agents, including various stapled peptides in Table E2, were confirmed.
In some embodiments, an assessment was performed as follows. On day 0, cells were seeded in cell culture media (RPMI1640, 4% FBS) in a 96-well plate at desired density, typically at 1000 cells/well. On day 1, 10 mM agent stock solution (in DMSO) was first serially diluted into DMSO at 1:2 ratio, followed by diluting with cell culture media at two times of the final concentrations. Finally, agent-containing media were introduced to cell culture wells already having the same volume of cell culture media. Cells were incubated with agents for desired days before lysed for CellTiter-Glo® Luminescent Cell Viability Assay according to the manufacture instruction (Promega, G7570). Luminescent signal was obtained from a microplate reader (GloMax, Promega). Cell viability data was expressed as % relative to DMSO control wells.
Proliferation Assay. In some embodiments, various proliferation assays are utilized to characterize or assess provided technologies. In some embodiments, on day 0, cells were seeded in cell culture media in a 96-well plate at desired density, typically at 1000 cells/well. On day 1, 10 mM compound stock solution was first serially diluted into DMSO, followed by diluting with cell culture media at two times of the final concentrations. Finally, compound-containing media were introduced to cell culture wells already having the same volume of cell culture media. Cells were incubated with compounds for desired days before lysed for CTG according to the manufacture instruction (G7570, Promega). Luminescent signal was obtained from a microplate reader (GloMax, Promega).

Compound | IC50
CC(=O)N1CCC[C@]12CC=CCCCC1(CCCC=CCCCOC(=O)N3CC[C@@]4(C3)NC(=O)[C@H](CCCCNC(=O)CC[C@@H](C(=O)N[C@@H](C)C(N)=O)NC(=O)[C@H](Cc3csc5ccccc35)NC(=O)[C@H](Cc3ccsc3)NC4=O)NC(=O)[C@H](Cc3ccccc3)NC(=O)[C@H](C)NC(=O)C(C)(C)NC(=O)[C@H](Cc3cccc(C(=O)O)c3)NC(=O)[C@H](CC(=O)O)NC1=O)NC(=O)[C@H](CCCN1CCOCC1)NC(=O)[C@H](CC(=O)O)NC2=O (relative stereo) [I-313, Ac-PL3-Asp-MorphNva-B5-Asp-3COOHF-Aib-Ala-Phe-Lys*3-PyrS2-3Thi-BztA-GlnR*3-Ala-NH2] | > 20 µM
CC(=O)N1CCC[C@]12CC=CCCCC1(CCCC=CCCCOC(=O)N3CC[C@@]4(C3)NC(=O)[C@H](CCCCNC(=O)CC[C@@H](C(=O)N[C@@H](C)C(N)=O)NC(=O)[C@H](Cc3csc5ccccc35)NC(=O)[C@H](Cc3ccsc3)NC4=O)NC(=O)[C@H](Cc3ccccc3)NC(=O)[C@H](C)NC(=O)[C@H](Cc3ccccc3)NC(=O)[C@H](Cc3cccc(C(=O)O)c3)NC(=O)[C@H](CC(=O)O)NC1=O)NC(=O)[C@H](CC(C)(C)C)NC(=O)[C@H](CC(=O)O)NC2=O (relative stereo) [I-386, Ac-PL3-Asp-Npg-B5-Asp-3COOHF-Phe-Ala-Phe-Lys*3-PyrS2-3Thi-BztA-GlnR*3-Ala-NH2] | > 20 µM

Same assay, conditions: read-out: COLO320DM Proliferation Abs IC50

Compound | IC50
2IAPAc-PL3-Asp-Npg-B5-Asp-3COOHF-Aib-Ala-Phe-Lys*3-PyrS2-3Thi-BztA-GlnR*3-Ala-NH2 [I-1064] | > 20 µM
124TriAc-PL3-Asp-Npg-B5-Asp-3COOHF-Aib-Ala-Phe-Lys*3-PyrS2-3Thi-BztA-GlnR*3-Ala-NH2 [I-1075] | > 20 µM
CC(=O)N1CCC[C@@]1(C)C(=O)N[C@@H](CC(=O)O)C(=O)N[C@H](C(=O)N[C@]1(C)CCCCCCCCOC(=O)N2CC[C@@]3(C2)NC(=O)[C@H](CCCCNC(=O)CC[C@@H](C(=O)N[C@@H](C)C(N)=O)NC(=O)[C@H](Cc2csc4ccccc24)NC(=O)[C@H](Cc2ccsc2)NC3=O)NC(=O)[C@H](Cc2ccccc2)NC(=O)[C@H](C)NC(=O)C(C)(C)NC(=O)[C@H](Cc2cccc(C(=O)O)c2)NC(=O)[C@H](CC(=O)O)NC1=O)C(C)C (relative stereo) [I-237, Ac-MePro-Asp-Val-R5-Asp-3COOHF-Aib-Ala-Phe-Lys*3-PyrS2-3Thi-BztA-GlnR*3-Ala-NH2] | > 20 µM
CCCC[C@@H]1NC(=O)[C@H](CC(=O)O)NC(=O)[C@]2(CC=CCCCC3(CCCC=CCCCOC(=O)N4CC[C@@]5(C4)NC(=O)[C@H](CCCCNC(=O)CC[C@@H](C(=O)N[C@@H](C)C(N)=O)NC(=O)[C@H](Cc4csc6ccccc46)NC(=O)[C@H](Cc4ccsc4)NC5=O)NC(=O)[C@H](Cc4ccccc4)NC(=O)[C@H](C)NC(=O)C(C)(C)NC(=O)[C@H](Cc4cccc(C(=O)O)c4)NC(=O)[C@H](CC(=O)O)NC3=O)NC1=O)CCCN2C(C)=O (relative stereo) [I-245, Ac-PL3-Asp-nLeu-B5-Asp-3COOHF-Aib-Ala-Phe-Lys*3-PyrS2-3Thi-BztA-GlnR*3-Ala-NH2] | ≤ 10 µM
CC(=O)N1CCC[C@]12CC=CCCCC1(CCCC=CCCCOC(=O)N3CC[C@@]4(C3)NC(=O)[C@H](CCCCNC(=O)CC[C@@H](C(=O)N[C@@H](C)C(N)=O)NC(=O)[C@H](Cc3csc5ccccc35)NC(=O)[C@H](Cc3ccccc3C)NC4=O)NC(=O)[C@H](Cc3ccccc3)NC(=O)[C@H](C)NC(=O)C(C)(C)NC(=O)[C@H](Cc3cccc(C(=O)O)c3)NC(=O)[C@H](CC(=O)O)NC1=O)NC(=O)[C@H](CC(C)(C)C)NC(=O)[C@H](CC(=O)O)NC2=O (relative stereo) [I-294, Ac-PL3-Asp-Npg-B5-Asp-3COOHF-Aib-Ala-Phe-Lys*3-PyrS2-2MeF-BztA-GlnR*3-Ala-NH2] | ≤ 10 µM
CC(=O)N1CCC[C@]12CC=CCCCC1(CCCC=CCCCOC(=O)N3CC[C@@]4(C3)NC(=O)[C@H](CCCCNC(=O)CC[C@@H](C(=O)N[C@@H](C)C(N)=O)NC(=O)[C@H](Cc3csc5ccccc35)NC(=O)[C@H](Cc3ccccn3)NC4=O)NC(=O)[C@H](Cc3ccccc3)NC(=O)[C@H](C)NC(=O)C(C)(C)NC(=O)[C@H](Cc3cccc(C(=O)O)c3)NC(=O)[C@H](CC(=O)O)NC1=O)NC(=O)[C@H](CC(C)(C)C)NC(=O)[C@H](CC(=O)O)NC2=O (relative stereo) [I-299, Ac-PL3-Asp-Npg-B5-Asp-3COOHF-Aib-Ala-Phe-Lys*3-PyrS2-2PyrA-BztA-GlnR*3-Ala-NH2] | 10 to 20 µM
CC(=O)N1CCC[C@]12CC=CCCCC1(CCCC=CCCCOC(=O)N3CC[C@@]4(C3)NC(=O)[C@H](CCCCNC(=O)CC[C@@H](C(=O)N[C@@H](C)C(N)=O)NC(=O)[C@H](Cc3csc5ccccc35)NC(=O)[C@H](Cc3cccnc3)NC4=O)NC(=O)[C@H](Cc3ccccc3)NC(=O)[C@H](C)NC(=O)C(C)(C)NC(=O)[C@H](Cc3cccc(C(=O)O)c3)NC(=O)[C@H](CC(=O)O)NC1=O)NC(=O)[C@H](CC(C)(C)C)NC(=O)[C@H](CC(=O)O)NC2=O (relative stereo) [I-300, Ac-PL3-Asp-Npg-B5-Asp-3COOHF-Aib-Ala-Phe-Lys*3-PyrS2-3PyrA-BztA-GlnR*3-Ala-NH2] | > 20 µM
CC(=O)N1CCC[C@]12CC=CCCCC1(CCCC=CCCCOC(=O)N3CC[C@@]4(C3)NC(=O)[C@H](CCCCNC(=O)CC[C@@H](C(=O)N[C@@H](C)C(N)=O)NC(=O)[C@H](Cc3csc5ccccc35)NC(=O)[C@H](Cc3ccncc3)NC4=O)NC(=O)[C@H](Cc3ccccc3)NC(=O)[C@H](C)NC(=O)C(C)(C)NC(=O)[C@H](Cc3cccc(C(=O)O)c3)NC(=O)[C@H](CC(=O)O)NC1=O)NC(=O)[C@H](CC(C)(C)C)NC(=O)[C@H](CC(=O)O)NC2=O (relative stereo) [I-301, Ac-PL3-Asp-Npg-B5-Asp-3COOHF-Aib-Ala-Phe-Lys*3-PyrS2-4PyrA-BztA-GlnR*3-Ala-NH2] | > 20 µM
CC(=O)N1CCC[C@]12CC=CCCCC1(CCCC=CCCCOC(=O)N3CC[C@@]4(C3)NC(=O)[C@H](CCCCNC(=O)CC[C@@H](C(=O)N[C@@H](C)C(N)=O)NC(=O)[C@H](Cc3csc5ccccc35)NC(=O)[C@H](Cc3ccsc3)NC4=O)NC(=O)[C@H](Cc3ccccc3)NC(=O)[C@H](C)NC(=O)C(C)(C)NC(=O)[C@H](Cc3cccc(C(=O)O)c3)NC(=O)[C@H](CC(=O)O)NC1=O)NC(=O)[C@H](C)NC(=O)[C@H](CC(=O)O)NC2=O (relative stereo) [I-304, Ac-PL3-Asp-Ala-B5-Asp-3COOHF-Aib-Ala-Phe-Lys*3-PyrS2-3Thi-BztA-GlnR*3-Ala-NH2] | ≤ 10 µM
CC(=O)N1CCC[C@]12CC=CCCCC1(CCCC=CCCCOC(=O)N3CC[C@@]4(C3)NC(=O)[C@H](CCCCNC(=O)CC[C@@H](C(=O)N[C@@H](C)C(N)=O)NC(=O)[C@H](Cc3csc5ccccc35)NC(=O)[C@H](Cc3ccsc3)NC4=O)NC(=O)[C@H](Cc3ccccc3)NC(=O)[C@H](C)NC(=O)C(C)(C)NC(=O)[C@H](Cc3cccc(C(=O)O)c3)NC(=O)[C@H](CC(=O)O)NC1=O)NC(=O)[C@H](C1CCCCC1)NC(=O)[C@H](CC(=O)O)NC2=O (single isomer, unassigned) [I-253, Ac-PL3-Asp-Chg-B5-Asp-3COOHF-Aib-Ala-Phe-Lys*3-PyrS2-3Thi-BztA-GlnR*3-Ala-NH2] | ≤ 10 µM

Reference: patent publication US20240360179A1, “STAPLED PEPTIDES AND METHODS THEREOF” (FOG PHARMACEUTICALS, INC., priority 2021, published 2024)
